molecular target: T1, Nav1.7 (or SCN9A) channel; HEK cells stably transfected with hSCN9A (Homo sapiens, UniProt Q15858); assay: Nav1.7 block, PatchXpress 7000 automated whole-cell voltage clamp, estimated IC50 (EIC50); type: cell-based; settings: PatchXpress platform; hSCN9A HEK cells held at V1/2 of inactivation; estimated IC50
T1 construct: expressed in transfected cells
T1 sequence (Q15858 whole entry): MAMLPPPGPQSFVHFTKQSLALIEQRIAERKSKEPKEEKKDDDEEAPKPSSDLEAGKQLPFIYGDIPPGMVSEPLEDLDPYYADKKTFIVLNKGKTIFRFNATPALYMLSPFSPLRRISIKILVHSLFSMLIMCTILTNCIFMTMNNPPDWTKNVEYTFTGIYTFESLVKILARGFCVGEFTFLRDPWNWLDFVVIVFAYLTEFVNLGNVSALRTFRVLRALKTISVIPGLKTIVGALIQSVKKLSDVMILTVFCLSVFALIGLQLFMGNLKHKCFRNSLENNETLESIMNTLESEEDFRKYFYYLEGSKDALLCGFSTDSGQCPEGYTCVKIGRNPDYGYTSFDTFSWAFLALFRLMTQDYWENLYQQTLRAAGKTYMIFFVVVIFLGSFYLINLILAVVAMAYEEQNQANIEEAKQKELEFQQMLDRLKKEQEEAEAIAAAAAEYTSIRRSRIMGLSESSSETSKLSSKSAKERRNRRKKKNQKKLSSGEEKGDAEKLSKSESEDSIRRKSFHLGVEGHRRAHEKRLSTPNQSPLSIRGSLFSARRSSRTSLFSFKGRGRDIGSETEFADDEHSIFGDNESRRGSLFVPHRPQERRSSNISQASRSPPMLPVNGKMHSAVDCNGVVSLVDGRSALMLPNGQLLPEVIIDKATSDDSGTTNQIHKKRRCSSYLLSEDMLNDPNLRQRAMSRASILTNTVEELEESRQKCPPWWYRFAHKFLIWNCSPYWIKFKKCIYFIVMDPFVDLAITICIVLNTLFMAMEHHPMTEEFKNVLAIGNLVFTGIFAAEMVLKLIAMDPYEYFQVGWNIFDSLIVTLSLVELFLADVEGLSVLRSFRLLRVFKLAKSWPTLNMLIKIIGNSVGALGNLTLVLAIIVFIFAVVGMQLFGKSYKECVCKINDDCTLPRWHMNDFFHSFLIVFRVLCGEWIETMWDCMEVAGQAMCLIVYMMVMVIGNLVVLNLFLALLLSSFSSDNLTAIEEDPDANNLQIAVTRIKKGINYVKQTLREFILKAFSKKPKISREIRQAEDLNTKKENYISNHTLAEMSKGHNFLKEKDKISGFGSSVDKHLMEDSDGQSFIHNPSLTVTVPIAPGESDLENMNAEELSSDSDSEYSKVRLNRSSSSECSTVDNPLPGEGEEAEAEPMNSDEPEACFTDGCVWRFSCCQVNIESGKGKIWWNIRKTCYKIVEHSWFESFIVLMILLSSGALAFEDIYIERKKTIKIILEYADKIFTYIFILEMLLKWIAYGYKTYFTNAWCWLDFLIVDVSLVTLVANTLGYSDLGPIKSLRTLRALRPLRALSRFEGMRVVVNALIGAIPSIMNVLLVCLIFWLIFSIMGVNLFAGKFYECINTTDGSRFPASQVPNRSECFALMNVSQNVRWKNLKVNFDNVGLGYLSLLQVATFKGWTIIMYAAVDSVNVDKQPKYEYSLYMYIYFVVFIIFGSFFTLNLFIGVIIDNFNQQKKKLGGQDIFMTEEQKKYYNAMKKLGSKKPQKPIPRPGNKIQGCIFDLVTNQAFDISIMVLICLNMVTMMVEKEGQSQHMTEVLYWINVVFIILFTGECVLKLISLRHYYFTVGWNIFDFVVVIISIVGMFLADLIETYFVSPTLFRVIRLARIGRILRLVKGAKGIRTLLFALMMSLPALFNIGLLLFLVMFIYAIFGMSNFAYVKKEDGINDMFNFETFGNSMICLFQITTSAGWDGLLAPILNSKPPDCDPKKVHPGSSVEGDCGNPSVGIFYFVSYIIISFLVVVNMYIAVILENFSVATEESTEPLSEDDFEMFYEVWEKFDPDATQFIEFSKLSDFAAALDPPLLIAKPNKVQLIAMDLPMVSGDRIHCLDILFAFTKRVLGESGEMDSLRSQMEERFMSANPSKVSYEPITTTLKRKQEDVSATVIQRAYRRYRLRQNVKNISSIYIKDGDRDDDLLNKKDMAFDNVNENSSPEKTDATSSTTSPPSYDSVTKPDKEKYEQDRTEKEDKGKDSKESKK

| IC50 [nM] | SMILES |
| --- | --- |
| 70 | N#Cc1cc(S(=O)(=O)Nc2nccs2)ccc1Oc1cc(C(F)(F)F)nn1-c1ccccc1 [Example 168, 3-cyano-4-(1-phenyl-3-(trifluoromethyl)-1H-pyrazol-5-yloxy)-N-(thiazol-2-yl)benzenesulfonamide] |
| 2670 | N#Cc1cc(S(=O)(=O)Nc2cncs2)ccc1Oc1ccccc1-c1ccccc1 [Example 105, 4-(biphenyl-2-yloxy)-3-cyano-N-1,3-thiazol-5-ylbenzenesulfonamide] |
| 1730 | COc1ccc(-c2cccc(C)c2Oc2ccc(S(=O)(=O)Nc3ncns3)cc2C#N)cc1 [Example 42, 3-cyano-4-[(4′-methoxy-3-methylbiphenyl-2-yl)oxy]-N-1,2,4-thiadiazol-5-ylbenzenesulfonamide] |
| 1370 | O=S(=O)(Nc1nccs1)c1ccc(Oc2cccc(-c3ccccc3)c2)cc1F [Example 210, 4-(biphenyl-3-yloxy)-2-fluoro-N-(thiazol-2-yl)benzenesulfonamide] |
| 1390 | N#Cc1cc(S(=O)(=O)Nc2ncc(Cl)s2)ccc1Oc1ccccc1C1CC1 [Example 144, N-(5-chloro-1,3-thiazol-2-yl)-3-cyano-4-(2-cyclopropylphenoxy)benzenesulfonamide] |
| 2660 | O=S(=O)(Nc1nccs1)c1ccc(Oc2ccccc2-c2ccccc2)nc1 [Example 278, 6-(biphenyl-2-yloxy)-pyridine-3-sulfonic acid thiazol-2-ylamide] |
| 2790 | N#Cc1cc(S(=O)(=O)Nc2ncns2)ccc1Oc1ccc(CC2CC2)cc1 [Example 60, 3-cyano-4-[4-(cyclopropylmethyl)phenoxy]-N-1,2,4-thiadiazol-5-ylbenzenesulfonamide] |
| 120 | O=S(=O)(Nc1nccs1)c1ccc(Oc2cc(C(F)(F)F)nn2-c2ccccc2)c(F)c1 [Example 229, 3-fluoro-4-(2-phenyl-5-trifluoromethyl-2H-pyrazol-3-yloxy)-N-thiazol-2-yl-benzenesulfonamide] |
| 130 | COc1cccc(-c2cc(F)ccc2Oc2ccc(S(=O)(=O)Nc3nccs3)cc2C#N)c1 [Example 154, 3-cyano-4-[(5-fluoro-3′-methoxybiphenyl-2-yl)oxy]-N-1,3-thiazol-2-ylbenzenesulfonamide] |
| 810 | Cc1nc(-c2ccccc2Oc2ccc(S(=O)(=O)Nc3nccs3)c(F)c2)cs1 [Example 2] |
| 1230 | N#Cc1cc(S(=O)(=O)Nc2nccs2)ccc1Oc1cc(C2CC2)nn1-c1ccccc1F [Example 193, 3-cyano-4-[5-cyclopropyl-2-(2-fluoro-phenyl)-2H-pyrazol-3-yloxy]-N-thiazol-2-yl-benzenesulfonamide] |
| 340 | O=S(=O)(Nc1ncns1)c1ccc(Oc2cc(C(F)(F)F)nn2-c2ccccc2)c(F)c1 [Example 254, 3-fluoro-4-(2-phenyl-5-trifluoromethyl-2H-pyrazol-3-yloxy)-N-1,2,4-thiadiazol-5-yl-benzenesulfonamide] |

same assay, conditions: estimated IC50; hSCN9A HEK cells, PatchXpress platform; Examples 283-814

| IC50 [nM] | SMILES |
| --- | --- |
| 15000 | CCn1nc(C(F)(F)F)cc1-c1ccc(Oc2ccc(S(=O)(=O)Nc3ncccc3Cl)cc2C#N)cc1 [Example 339, N-(3-chloropyridin-2-yl)-3-cyano-4-{4-[1-ethyl-3-(trifluoromethyl)-1H-pyrazol-5-yl]phenoxy}benzenesulfonamide] |
| 91 | Cn1nccc1-c1cc(F)ccc1Oc1ccc(S(=O)(=O)Nc2ncc(F)s2)cc1C#N [Example 386, 3-cyano-4-[4-fluoro-2-(1-methyl-1H-pyrazol-5-yl)phenoxy]-N-(5-fluoro-1,3-thiazol-2-yl)benzenesulfonamide] |
| >1000 | CCn1nc(-c2ccc(Oc3ccc(S(=O)(=O)Nc4nccs4)cc3C#N)c(F)c2)cc1C(F)(F)F [Example 324, 3-cyano-4-{4-[1-ethyl-5-(trifluoromethyl)-1H-pyrazol-3-yl]-2-fluorophenoxy}-N-1,3-thiazol-2-ylbenzenesulfonamide] |
| 280 | N#Cc1cncc(-c2cc(C(F)(F)F)ccc2Oc2cc(F)c(S(=O)(=O)Nc3ncns3)cc2Cl)c1 [Example 616, 5-chloro-4-[2-(5-cyanopyridin-3-yl)-4-(trifluoromethyl)phenoxy]-2-fluoro-N-1,2,4-thiadiazol-5-ylbenzenesulfonamide] |
| >1000 | Cn1ncnc1-c1cc(Cl)ccc1Oc1ccc(S(=O)(=O)Nc2ncc(F)s2)cc1F [Example 349, 4-[4-chloro-2-(1-methyl-1H-1,2,4-triazol-5-yl)phenoxy]-3-fluoro-N-(5-fluoro-1,3-thiazol-2-yl)benzenesulfonamide] |
| 230 | N#Cc1cc(S(=O)(=O)Nc2cscn2)ccc1Oc1ccc(C(F)(F)F)cc1-c1cn[nH]c1 [Example 598, 3-cyano-4-[2-(1H-pyrazol-4-yl)-4-(trifluoromethyl)phenoxy]-N-1,3-thiazol-4-ylbenzenesulfonamide] |
| 200 | Cn1nccc1-c1cc(F)ccc1Oc1ccc(S(=O)(=O)Nc2ccncn2)cc1Cl [Example 669, 3-Chloro-4-[4-fluoro-2-(1-methyl-1H-pyrazol-5-yl)phenoxy]-N-pyrimidin-4-ylbenzenesulfonamide] |
| 2500 | Cn1ccc(-c2ccc(F)cc2Oc2ccc(S(=O)(=O)Nc3nccs3)cc2C#N)n1 [Example 494, 3-cyano-4-[5-fluoro-2-(1-methyl-1H-pyrazol-3-yl)phenoxy]-N-1,3-thiazol-2-ylbenzenesulfonamide] |
| 88 | O=S(=O)(Nc1ncc(F)s1)c1ccc(Oc2ccc(Cl)cc2-c2cn[nH]c2)c(F)c1 [Example 674, 4-[4-chloro-2-(1H-pyrazol-4-yl)phenoxy]-3-fluoro-N-(5-fluoro-1,3-thiazol-2-yl)benzenesulfonamide] |
| 1700 | Cc1cc(-c2cccc(Oc3ccc(S(=O)(=O)Nc4nccs4)cc3C#N)c2)n(CCN(C)C)n1 [Example 481, 3-cyano-4-(3-{1-[2-(dimethylamino)ethyl]-3-methyl-1H-pyrazol-5-yl}phenoxy)-N-1,3-thiazol-2-ylbenzenesulfonamide] |
| 3600 | CCn1nc(C(F)(F)F)cc1-c1ccc(Oc2ccc(S(=O)(=O)Nc3cnsn3)cc2C#N)cc1 [Example 341, 3-cyano-4-{4-[1-ethyl-3-(trifluoromethyl)-1H-pyrazol-5-yl]phenoxy}-N-1,2,5-thiadiazol-3-ylbenzenesulfonamide] |
| 3400 | Cn1nccc1-c1ccc(Oc2ccc(S(=O)(=O)Nc3ncc(F)s3)cc2C#N)c(C#N)c1 [Example 538, 3-cyano-4-[2-cyano-4-(1-methyl-1H-pyrazol-5-yl)phenoxy]-N-(5-fluoro-1,3-thiazol-2-yl)benzenesulfonamide] |
| 110 | N#Cc1cc(S(=O)(=O)Nc2nccs2)ccc1Oc1ccc(Cl)cc1C1CNC1 [Example 690, 4-(2-azetidin-3-yl-4-chlorophenoxy)-3-cyano-N-1,3-thiazol-2-ylbenzenesulfonamide] |
| 6.2 | Nc1cc(-c2cc(Cl)ccc2Oc2cc(F)c(S(=O)(=O)Nc3nncs3)cc2Cl)ccn1 [Example 814, 4-[2-(2-aminopyridin-4-yl)-4-chlorophenoxy]-5-chloro-2-fluoro-N-1,3,4-thiadiazol-2-ylbenzenesulfonamide] |
| 130 | O=S(=O)(Nc1nccs1)c1ccc(Oc2ccc(Cl)cc2-c2cn[nH]c2)c(F)c1 [Example 685, 4-[4-chloro-2-(1H-pyrazol-4-yl)phenoxy]-3-fluoro-N-1,3-thiazol-2-ylbenzenesulfonamide] |
| 3400 | Cc1ccnc(-c2ccc(Oc3ccc(S(=O)(=O)Nc4nccs4)cc3C#N)cc2)c1 [Example 450, 3-cyano-4-[4-(4-methylpyridin-2-yl)phenoxy]-N-1,3-thiazol-2-ylbenzenesulfonamide] |

same assay, conditions: estimated IC50; hSCN9A HEK cells, PatchXpress platform; Examples 815-1040

| IC50 [nM] | SMILES |
| --- | --- |
| 310 | N#Cc1cc(S(=O)(=O)Nc2ncc(Cl)s2)ccc1Oc1ccc(Cl)cc1-c1ccon1 [Example 990, 4-(4-chloro-2-isoxazol-3-ylphenoxy)-N-(5-chloro-1,3-thiazol-2-yl)-3-cyanobenzenesulfonamide] |
| 5.8 | O=S(=O)(Nc1ncns1)c1cc(F)c(Oc2ccc(OC(F)F)cc2-c2cn[nH]c2)cc1F [Example 837, 4-[4-(difluoromethoxy)-2-(1H-pyrazol-4-yl)phenoxy]-2,5-difluoro-N-1,2,4-thiadiazol-5-ylbenzenesulfonamide] |
| 670 | N#Cc1cc(S(=O)(=O)Nc2ncns2)ccc1Oc1ccc(F)cc1-c1cocn1 [Example 889, 3-cyano-4-[4-fluoro-2-(1,3-oxazol-4-yl)phenoxy]-N-1,2,4-thiadiazol-5-ylbenzenesulfonamide] |
| 0.7 | N#Cc1cc(S(=O)(=O)Nc2ncns2)ccc1Oc1ccc(C(F)(F)F)cc1-c1cccc(CN2CCC2)c1 [Example 988, 4-{[3′-(azetidin-1-ylmethyl)-5-(trifluoromethyl)biphenyl-2-yl]oxy}-3-cyano-N-1,2,4-thiadiazol-5-ylbenzenesulfonamide] |
| 21 | Nc1n[nH]cc1-c1cc(Cl)ccc1Oc1cc(F)c(S(=O)(=O)Nc2ccncn2)cc1Cl [Example 1036, 4-[2-(3-amino-1H-pyrazol-4-yl)-4-chlorophenoxy]-5-chloro-2-fluoro-N-pyrimidin-4-ylbenzenesulfonamide] |
| 11 | Cc1[nH]ncc1-c1cc(Cl)ccc1Oc1cc(F)c(S(=O)(=O)Nc2nncs2)cc1Cl [Example 816, 5-chloro-4-[4-chloro-2-(5-methyl-1H-pyrazol-4-yl)phenoxy]-2-fluoro-N-1,3,4-thiadiazol-2-ylbenzenesulfonamide] |
| 52 | Nc1cc(-c2cc(F)ccc2Oc2cc(F)c(S(=O)(=O)Nc3ncns3)cc2Cl)[nH]n1 [Example 840, 4-[2-(3-amino-1H-pyrazol-5-yl)-4-fluorophenoxy]-5-chloro-2-fluoro-N-1,2,4-thiadiazol-5-ylbenzenesulfonamide] |
| 240 | O=S(=O)(Nc1nncs1)c1cc(F)c(Oc2ccc(C(F)(F)F)cc2-c2ccnnc2)cc1F [Example 917, 2,5-difluoro-4-[2-pyridazin-4-yl-4-(trifluoromethyl)phenoxy]-N-1,3,4-thiadiazol-2-ylbenzenesulfonamide] |
| 31 | N#Cc1cc(S(=O)(=O)Nc2ncns2)ccc1Oc1cc(C(F)(F)F)ccc1-c1ccnnc1 [Example 940, 3-cyano-4-[2-pyridazin-4-yl-5-(trifluoromethyl)phenoxy]-N-1,2,4-thiadiazol-5-ylbenzenesulfonamide] |

— patent US8541588B2, “Sulfonamide derivatives” (Pfizer Limited, priority 2009, dated 2013)
